Results published in US20240150303A1, “DIAMINOTRIAZINE COMPOUNDS” (BASF SE, priority 2021, published 2024).

Assays:
Assay in all cases: greenhouse pre-emergence herbicidal test
Type in all cases: in vivo
Amaranthus retroflexus = tested on: Amaranthus retroflexus
From the text: (§1) The seeds of the test plants were sown separately for each species. For the pre-emergence treatment, the active ingredients, which had been suspended or emulsified in water, were applied directly after sowing by means of finely distributing nozzles. The containers were irrigated gently to promote germination and growth and subsequently covered with transparent plastic hoods until the plants had rooted. This cover caused uniform germination of the test plants, unless this had been impaired by the active ingredients. […] The test period extended over 2 to 4 weeks. During this time, the plants were tended, and their response to the individual treatments was evaluated. Evaluation was carried out using a scale from 0 to 100. 100 means no emergence of the plants, or complete destruction of at least the aerial moieties, and 0 means no damage, or normal course of growth. A moderate herbicidal activity is given at values of at least 60, a good herbicidal activity is given at values of at least 70, and a very good herbicidal activity is given at values of at least 85. The plants used in the greenhouse experiments were of the following species: [table]

Echinocloa crus-galli = tested on: Echinocloa crus-galli
From the text: as §1

Setaria faberi = tested on: Setaria faberi
From the text: as §1

Abutilon theophrasti = tested on: Abutilon theophrasti
From the text: (§2) The culture containers used were plastic flowerpots containing loamy sand with approximately 3.0% of humus as the substrate. The seeds of the test plants were sown separately for each species.
(§3) For the pre-emergence treatment, the active ingredients, which had been suspended or emulsified in water, were applied directly after sowing by means of finely distributing nozzles.
(§4) The containers were irrigated gently to promote germination and growth and subsequently covered with transparent plastic hoods until the plants had rooted. This cover caused uniform germination of the test plants, unless this had been impaired by the active ingredients.
(§5) Depending on the species, the plants were kept at 10-25° C. or 20-35° C., respectively.
(§6) The test period extended over 2 to 4 weeks. During this time, the plants were tended, and their response to the individual treatments was evaluated.
(§7) Evaluation was carried out using a scale from 0 to 100. 100 means no emergence of the plants, or complete destruction of at least the aerial moieties, and 0 means no damage, or normal course of growth. A moderate herbicidal activity is given at values of at least 60, a good herbicidal activity is given at values of at least 70, and a very good herbicidal activity is given at values of at least 85.
(§8) The plants used in the greenhouse experiments were of the following species: […]

Alopercurus myosuroides = tested on: Alopercurus myosuroides
From the text: as §2, §3, §4, §5, §6, §7, §8

Lolium multiflorum = conditions: 62 g/ha
From the text: as §2, §3, §4, §5, §6, §7, §8

## CC#CCOc1c(Br)cc(F)c(Cl)c1Nc1nc(N)nc(C(C)(C)F)n1 [Example 32]
Amaranthus retroflexus; 62.5 g/ha
  herbicidal activity: 100%
Echinocloa crus-galli; 62.5 g/ha
  herbicidal activity: 100%
Setaria faberi; 62 g/ha
  herbicidal activity: 100%
Abutilon theophrasti; 62 g/ha
  herbicidal activity: 100%
Abutilon theophrasti; 62.5 g/ha
  herbicidal activity: 100%
Alopercurus myosuroides; 62 g/ha
  herbicidal activity: 100%

## COc1c(Cl)cc(Cl)c(C)c1Nc1nc(N)nc(C(F)(F)F)n1 [Example 33]
Amaranthus retroflexus; 62.5 g/ha
  herbicidal activity: 100%
Echinocloa crus-galli; 62.5 g/ha
  herbicidal activity: 98%
Echinocloa crus-galli; 125 g/ha
  herbicidal activity: 100%
Setaria faberi; 125 g/ha
  herbicidal activity: 100%
Abutilon theophrasti; 62.5 g/ha
  herbicidal activity: 100%
Alopercurus myosuroides; 125 g/ha
  herbicidal activity: 100%

## COc1c(Br)cc(C)c(C)c1Nc1nc(N)nc(C(C)F)n1 (stereo not shown) [Example 46]
Amaranthus retroflexus; 62 g/ha
  herbicidal activity: 100%
Amaranthus retroflexus; 62.5 g/ha
  herbicidal activity: 100%
Echinocloa crus-galli; 62.5 g/ha
  herbicidal activity: 100%
Setaria faberi; 62 g/ha
  herbicidal activity: 100%
Setaria faberi; 62.5 g/ha
  herbicidal activity: 100%
Lolium multiflorum
  herbicidal activity: 80%

## COc1c(Br)cc(C)c(C)c1Nc1nc(N)nc(C2(F)CCCC2)n1 [Example 47]
Amaranthus retroflexus; 62.5 g/ha
  herbicidal activity: 100%
Echinocloa crus-galli; 62.5 g/ha
  herbicidal activity: 100%
Setaria faberi; 62 g/ha
  herbicidal activity: 90%
Setaria faberi; 62.5 g/ha
  herbicidal activity: 100%
Lolium multiflorum
  herbicidal activity: 80%

## COc1c(Br)cc(C)c(C)c1Nc1nc(N)nc(C(C)(C)OC)n1 [Example 48]
Amaranthus retroflexus; 31 g/ha
  herbicidal activity: 100%
Echinocloa crus-galli; 31 g/ha
  herbicidal activity: 70%
Echinocloa crus-galli; 62 g/ha
  herbicidal activity: 90%
Setaria faberi; 31 g/ha
  herbicidal activity: 100%
Setaria faberi; 62 g/ha
  herbicidal activity: 80%
Lolium multiflorum
  herbicidal activity: 98%

## COc1c(F)ccc(Cl)c1Nc1nc(N)nc(C2(F)CCCC2)n1 [Example 53]
Amaranthus retroflexus; 62 g/ha
  herbicidal activity: 100%
Echinocloa crus-galli; 62 g/ha
  herbicidal activity: 100%
Echinocloa crus-galli; 62.5 g/ha
  herbicidal activity: 98%
Setaria faberi; 62.5 g/ha
  herbicidal activity: 100%
Abutilon theophrasti; 62 g/ha
  herbicidal activity: 100%
Alopercurus myosuroides; 62.5 g/ha
  herbicidal activity: 90%

## COc1c(F)cc(C)c(C)c1Nc1nc(N)nc(C(C)(C)F)n1 [Example 54]
Amaranthus retroflexus; 62 g/ha
  herbicidal activity: 100%
Echinocloa crus-galli; 62 g/ha
  herbicidal activity: 100%
Echinocloa crus-galli; 62.5 g/ha
  herbicidal activity: 100%
Abutilon theophrasti; 62 g/ha
  herbicidal activity: 100%
Abutilon theophrasti; 62.5 g/ha
  herbicidal activity: 100%
Alopercurus myosuroides; 62.5 g/ha
  herbicidal activity: 100%

## CC#CCOc1c(F)cc(Br)c(Cl)c1Nc1nc(N)nc(C(C)(C)F)n1 [Example 59]
Amaranthus retroflexus; 62 g/ha
  herbicidal activity: 100%
Echinocloa crus-galli; 62.5 g/ha
  herbicidal activity: 95%
Setaria faberi; 62 g/ha
  herbicidal activity: 100%
Setaria faberi; 62.5 g/ha
  herbicidal activity: 100%
Abutilon theophrasti; 62.5 g/ha
  herbicidal activity: 100%
Alopercurus myosuroides; 62 g/ha
  herbicidal activity: 95%

## COc1c(Cl)cc(Br)c(C)c1Nc1nc(N)nc(C2(F)CCCC2)n1 [Example 61]
Amaranthus retroflexus; 31 g/ha
  herbicidal activity: 100%
Echinocloa crus-galli; 31 g/ha
  herbicidal activity: 100%
Echinocloa crus-galli; 62 g/ha
  herbicidal activity: 70%
Setaria faberi; 62 g/ha
  herbicidal activity: 85%
Abutilon theophrasti; 31 g/ha
  herbicidal activity: 100%
Alopercurus myosuroides; 62 g/ha
  herbicidal activity: 75%

## COc1c(Cl)cc(C)c(Cl)c1Nc1nc(N)nc(C(C)(C)F)n1 [Example 63]
Amaranthus retroflexus; 31 g/ha
  herbicidal activity: 80%
Amaranthus retroflexus; 62 g/ha
  herbicidal activity: 100%
Echinocloa crus-galli; 62 g/ha
  herbicidal activity: 100%
Setaria faberi; 31 g/ha
  herbicidal activity: 100%
Abutilon theophrasti; 62 g/ha
  herbicidal activity: 100%
Alopercurus myosuroides; 31 g/ha
  herbicidal activity: 80%

## COc1c(Cl)cc(F)c(C)c1Nc1nc(N)nc(C(C)(C)F)n1 [Example 70]
Amaranthus retroflexus; 62 g/ha
  herbicidal activity: 100%
Echinocloa crus-galli; 62 g/ha
  herbicidal activity: 100%
Setaria faberi; 62 g/ha
  herbicidal activity: 100%
Abutilon theophrasti; 62 g/ha
  herbicidal activity: 100%

## COc1c(Cl)ccc(Cl)c1Nc1nc(N)nc(C(C)F)n1 (stereo not shown) [Example 71]
Amaranthus retroflexus; 62 g/ha
  herbicidal activity: 100%
Echinocloa crus-galli; 62 g/ha
  herbicidal activity: 100%
Setaria faberi; 62 g/ha
  herbicidal activity: 100%
Abutilon theophrasti; 62 g/ha
  herbicidal activity: 100%

## COc1c(Cl)cc(F)c(C)c1Nc1nc(N)nc(C2(F)CC2)n1 [Example 92]
Amaranthus retroflexus; 62 g/ha
  herbicidal activity: 100%
Echinocloa crus-galli; 62 g/ha
  herbicidal activity: 100%
Echinocloa crus-galli; 62.5 g/ha
  herbicidal activity: 100%
Setaria faberi; 62 g/ha
  herbicidal activity: 100%
Abutilon theophrasti; 62.5 g/ha
  herbicidal activity: 100%
Alopercurus myosuroides; 62.5 g/ha
  herbicidal activity: 100%

## COc1c(Cl)cc(Cl)c(C)c1Nc1nc(N)nc(C2(F)CC2)n1 [Example 93]
Amaranthus retroflexus; 62 g/ha
  herbicidal activity: 100%
Amaranthus retroflexus; 62.5 g/ha
  herbicidal activity: 100%
Echinocloa crus-galli; 62 g/ha
  herbicidal activity: 100%
Setaria faberi; 62 g/ha
  herbicidal activity: 100%
Setaria faberi; 62.5 g/ha
  herbicidal activity: 70%
Abutilon theophrasti; 62.5 g/ha
  herbicidal activity: 80%

## COc1c(Br)cc(Cl)c(C)c1Nc1nc(N)nc(C(C)(F)F)n1 [Example 97]
Amaranthus retroflexus; 62 g/ha
  herbicidal activity: 85%
Setaria faberi; 62 g/ha
  herbicidal activity: 85%
Alopercurus myosuroides; 62 g/ha
  herbicidal activity: 70%
